Peptide text beside a SMILES is read from it.

The text below walks through data of ChEMBL document CHEMBL5338820, “Discovery and Design of Novel Cyclic Peptides as Specific Inhibitors Targeting CCN2 and Disrupting CCN2/EGFR Interaction for Kidney Fibrosis Treatment” (J Med Chem, 2023).

Test [1] concerns the target T1, CCN2-EGFR (Homo sapiens) (UniProt P00533+P29279). The experiment in a line: Inhibition of His-tagged full length human CCN2 FL domain/human Fc-tagged EGFR protein-protein interaction using TMB as chromogenic substrate at 100 uM incubated for 140 mins by microplate reader assay relative to control.
For test [2], the target named is T1, CCN2-EGFR (Homo sapiens). The test is described as follows: Inhibition of His-tagged full length human CCN2 CT domain/human Fc-tagged EGFR protein-protein interaction using TMB as chromogenic substrate at 100 uM incubated for 140 mins by microplate reader assay relative to control.

T1 sequence (P00533 whole entry, looked up, the tested form may be a part): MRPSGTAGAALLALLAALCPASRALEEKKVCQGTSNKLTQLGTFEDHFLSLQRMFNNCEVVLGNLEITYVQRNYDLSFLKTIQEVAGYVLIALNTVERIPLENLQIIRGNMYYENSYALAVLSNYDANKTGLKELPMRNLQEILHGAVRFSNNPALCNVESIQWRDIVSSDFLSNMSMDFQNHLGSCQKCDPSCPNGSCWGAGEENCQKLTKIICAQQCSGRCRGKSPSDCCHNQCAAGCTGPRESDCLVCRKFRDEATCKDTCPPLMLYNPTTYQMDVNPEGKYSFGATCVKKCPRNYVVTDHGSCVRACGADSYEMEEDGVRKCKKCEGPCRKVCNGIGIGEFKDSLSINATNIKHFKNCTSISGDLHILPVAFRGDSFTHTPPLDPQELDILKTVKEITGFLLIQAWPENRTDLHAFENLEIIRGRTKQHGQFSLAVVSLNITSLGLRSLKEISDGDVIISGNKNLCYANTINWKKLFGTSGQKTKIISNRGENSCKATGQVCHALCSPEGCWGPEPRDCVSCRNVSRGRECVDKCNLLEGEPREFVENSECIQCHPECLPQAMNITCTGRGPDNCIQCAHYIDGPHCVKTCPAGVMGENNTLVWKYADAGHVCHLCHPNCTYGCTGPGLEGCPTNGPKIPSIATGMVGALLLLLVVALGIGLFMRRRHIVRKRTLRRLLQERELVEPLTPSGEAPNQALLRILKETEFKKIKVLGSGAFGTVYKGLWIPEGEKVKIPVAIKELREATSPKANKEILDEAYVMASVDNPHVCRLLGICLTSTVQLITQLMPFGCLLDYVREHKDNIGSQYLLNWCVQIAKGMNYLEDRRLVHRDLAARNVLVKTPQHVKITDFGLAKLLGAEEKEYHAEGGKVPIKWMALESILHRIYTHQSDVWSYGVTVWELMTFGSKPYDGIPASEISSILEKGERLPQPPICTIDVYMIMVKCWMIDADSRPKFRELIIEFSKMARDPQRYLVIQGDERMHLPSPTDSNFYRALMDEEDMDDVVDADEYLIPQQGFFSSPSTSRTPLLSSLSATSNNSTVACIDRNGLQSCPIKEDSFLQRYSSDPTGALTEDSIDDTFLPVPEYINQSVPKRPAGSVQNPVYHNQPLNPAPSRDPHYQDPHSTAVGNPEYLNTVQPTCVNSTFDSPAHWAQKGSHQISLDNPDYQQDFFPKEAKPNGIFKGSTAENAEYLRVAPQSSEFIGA
T1 sequence (P29279 whole entry, looked up, the tested form may be a part): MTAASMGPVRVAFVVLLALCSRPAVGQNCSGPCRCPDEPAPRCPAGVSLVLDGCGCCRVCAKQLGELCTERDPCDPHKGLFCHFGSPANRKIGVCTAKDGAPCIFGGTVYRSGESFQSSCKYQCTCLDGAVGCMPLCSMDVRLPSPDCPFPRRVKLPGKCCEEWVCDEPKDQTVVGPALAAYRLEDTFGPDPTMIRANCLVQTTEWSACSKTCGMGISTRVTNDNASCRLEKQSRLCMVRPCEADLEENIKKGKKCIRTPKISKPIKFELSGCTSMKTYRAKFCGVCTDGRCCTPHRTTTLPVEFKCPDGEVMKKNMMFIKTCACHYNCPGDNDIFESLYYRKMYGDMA

A word on the inhibition: it is the share of the control response that was lost under treatment. A lower inhibition goes with a weak effect. As to `CC(C)C[C@H](NC(=O)[C@@H](N)CC(C)C)C(=O)N[C@@H](C)C(=O)N[C@@H](CC(=O)O)C(=O)N[C@H](C(=O)N[C@H](C(=O)N[C@@H](Cc1c[nH]cn1)C(=O)N[C@@H](Cc1c[nH]cn1)C(=O)N[C@@H](CCCNC(=N)N)C(=O)N[C@@H](C)C(=O)N[C@@H](Cc1c[nH]c2ccccc12)C(=O)N[C@H](C(N)=O)[C@@H](C)O)[C@@H](C)O)[C@@H](C)O` (H-LLADTTHHRAWT-NH2), the inhibition in test [1] came out at 56.5%; in test [2], 65.6%.
The like results for `C[C@@H](O)[C@H](N)C(=O)N[C@@H](Cc1c[nH]cn1)C(=O)N[C@@H](Cc1c[nH]cn1)C(=O)N[C@@H](CCC(N)=O)C(=O)N1CCC[C@H]1C(=O)N[C@@H](Cc1c[nH]c2ccccc12)C(=O)N[C@H](C(N)=O)[C@@H](C)O` (H-THHQPWT-NH2) were, in that order, 2.1% and 8.1%.
The like results for `CC(C)C[C@H](NC(=O)[C@@H](N)CC(C)C)C(=O)N[C@@H](C)C(=O)N[C@@H](CC(=O)O)C(=O)N[C@H](C(=O)N[C@H](C(=O)N[C@@H](Cc1c[nH]cn1)C(=O)N[C@@H](Cc1c[nH]cn1)C(=O)N[C@@H](C)C(=O)N1CCC[C@H]1C(=O)N[C@@H](Cc1c[nH]c2ccccc12)C(=O)N[C@H](C(N)=O)[C@@H](C)O)[C@@H](C)O)[C@@H](C)O` (H-LLADTTHHAPWT-NH2) were, in that order, 57.8% and 72.5%.
On to `CC(C)C[C@H](NC(=O)[C@@H](N)CC(C)C)C(=O)N[C@@H](C)C(=O)N[C@@H](CC(=O)O)C(=O)N[C@H](C(=O)N[C@H](C(=O)N[C@@H](Cc1c[nH]cn1)C(=O)N[C@@H](Cc1c[nH]cn1)C(=O)N[C@@H](CCCNC(=N)N)C(=O)N1CCC[C@H]1C(=O)N[C@@H](Cc1c[nH]c2ccccc12)C(=O)N[C@@H](C)C(N)=O)[C@@H](C)O)[C@@H](C)O` (H-LLADTTHHRPWA-NH2), for which the inhibition in test [1] was found to be 13.5%; in test [2], 14.2%.
On the same counts, the results for `CC(C)C[C@H](NC(=O)[C@@H](N)CC(C)C)C(=O)N[C@@H](C)C(=O)N[C@@H](C)C(=O)N[C@H](C(=O)N[C@H](C(=O)N[C@@H](Cc1c[nH]cn1)C(=O)N[C@@H](Cc1c[nH]cn1)C(=O)N[C@@H](CCCNC(=N)N)C(=O)N1CCC[C@H]1C(=O)N[C@@H](Cc1c[nH]c2ccccc12)C(=O)N[C@H](C(N)=O)[C@@H](C)O)[C@@H](C)O)[C@@H](C)O` (H-LLAATTHHRPWT-NH2) are 61.4% and 76%.
The like results for `C[C@@H](O)[C@H](N)C(=O)N[C@@H](Cc1c[nH]cn1)C(=O)N[C@@H](CCC(N)=O)C(=O)N[C@@H](CCCNC(=N)N)C(=O)N1CCC[C@H]1C(=O)N[C@@H](Cc1c[nH]c2ccccc12)C(=O)N[C@H](C(N)=O)[C@@H](C)O` (H-THQRPWT-NH2) were, in that order, 5.1% and 10.9%.
On the same counts, the results for `C[C@@H](O)[C@H](N)C(=O)N[C@@H](CCC(=O)O)C(=O)N[C@@H](Cc1c[nH]cn1)C(=O)N[C@@H](CCCNC(=N)N)C(=O)N1CCC[C@H]1C(=O)N[C@@H](Cc1c[nH]c2ccccc12)C(=O)N[C@H](C(N)=O)[C@@H](C)O` (H-TEHRPWT-NH2) are 12.5% and 11.5%.
`CC(C)C[C@H](NC(=O)[C@@H](N)CC(C)C)C(=O)N[C@@H](C)C(=O)N[C@@H](CC(=O)O)C(=O)N[C@H](C(=O)N[C@@H](C)C(=O)N[C@@H](Cc1c[nH]cn1)C(=O)N[C@@H](Cc1c[nH]cn1)C(=O)N[C@@H](CCCNC(=N)N)C(=O)N1CCC[C@H]1C(=O)N[C@@H](Cc1c[nH]c2ccccc12)C(=O)N[C@H](C(N)=O)[C@@H](C)O)[C@@H](C)O` (H-LLADTAHHRPWT-NH2): the inhibition was 36.5% in test [1] and 44.1% in test [2].
For the compound `C[C@@H](O)[C@H](N)C(=O)N[C@@H](CCC(N)=O)C(=O)N[C@@H](Cc1c[nH]cn1)C(=O)N[C@@H](CCCNC(=N)N)C(=O)N1CCC[C@H]1C(=O)N[C@@H](Cc1c[nH]c2ccccc12)C(=O)N[C@H](C(N)=O)[C@@H](C)O` (H-TQHRPWT-NH2), the values for the inhibition in test [1] and in test [2] were 6.8% and 11.8%, respectively.
